EC50 data for 24 compounds are collected here from patent publication US12065399B2, “Arylsulfonamide derivatives” (Hoffmann-La Roche Inc., priority 2019, dated 2024).

Where a name gives a salt, the structure may show the parent alone.

This assay addresses human mGlu4 receptor (Homo sapiens (Human), UniProt Q14833). Briefly: Intracellular Ca2+ mobilization assay (FLIPR), mGlu4 NAM. It counts as cell-based. As to conditions: HEK-293 cells stably transfected with human mGlu4; inhibition of L-AP4 (EC80) response; IC50. How it is done: 2.1) Intracellular Ca^2+ Mobilization Assay (FLIPR)
A monoclonal HEK-293 cell line stably transfected with a cDNA encoding for the human mGlu4 receptor was generated. Cells were cultured according to standard protocols (Freshney, 2000) in Dulbecco's Modified Eagle Medium with high glucose supplemented with 1 mM glutamine, 10% (vol/vol) heat-inactivated bovine calf serum, penicillin/streptomycin, 50 μg/ml hygromycin and 15 μg/ml blasticidin (all cell culture reagents and antibiotics from Invitrogen, Basel, Switzerland).
About 24 hrs before an experiment, 5×10^4 cells/well were seeded in poly-D-lysine coated, black/clear-bottomed 96-well plates. The cells were loaded with 2.5 μM Fluo-4AM in loading buffer (1×HBSS, 20 mM HEPES) for 1 hr at 37° C. and washed five times with loading buffer. The cells were transferred into a Functional Drug Screening System 7000 (Hamamatsu, Paris, France), and 11 half logarithmic serial dilutions of test compound at 37° C. were added and the cells were incubated for 10-30 min. with on-line recording of fluorescence. Following this pre-incubation step, the agonist (2S)-2-amino-4-phosphonobutanoic acid (L-AP4) was added to the cells at a concentration corresponding to EC80 with on-line recording of fluorescence; in order to account for day-to-day variations in the responsiveness of cells, the EC80 of L-AP4 was determined immediately ahead of each experiment by recording of a full dose-response curve of L-AP4.
Responses were measured as peak increase in fluorescence minus basal (i.e. fluorescence without addition of L-AP4), normalized to the maximal stimulatory effect obtained with saturating concentrations of L-AP4. Graphs were plotted with the % maximal stimulatory using XLfit, a curve fitting program that iteratively plots the data using Levenburg Marquardt algorithm. The single site competition analysis equation used was y=A+((B-A)/(1+((x/C)D))), where y is the % maximal stimulatory effect, A is the minimum y, B is the maximum y, C is the IC50, x is the log 10 of the concentration of the competing compound and D is the slope of the curve (the Hill Coefficient). From these curves the IC50 (drug concentration at which 50% of the receptor activation achieved from the addition of L-AP4 in the experiment was inhibited), the Hill coefficient as well as the maximal response in % of the maximal stimulatory effect obtained with saturating concentrations of L-AP4 were calculated (see FIG. 1).

Sequence of human mGlu4 receptor (Q14833 33-912): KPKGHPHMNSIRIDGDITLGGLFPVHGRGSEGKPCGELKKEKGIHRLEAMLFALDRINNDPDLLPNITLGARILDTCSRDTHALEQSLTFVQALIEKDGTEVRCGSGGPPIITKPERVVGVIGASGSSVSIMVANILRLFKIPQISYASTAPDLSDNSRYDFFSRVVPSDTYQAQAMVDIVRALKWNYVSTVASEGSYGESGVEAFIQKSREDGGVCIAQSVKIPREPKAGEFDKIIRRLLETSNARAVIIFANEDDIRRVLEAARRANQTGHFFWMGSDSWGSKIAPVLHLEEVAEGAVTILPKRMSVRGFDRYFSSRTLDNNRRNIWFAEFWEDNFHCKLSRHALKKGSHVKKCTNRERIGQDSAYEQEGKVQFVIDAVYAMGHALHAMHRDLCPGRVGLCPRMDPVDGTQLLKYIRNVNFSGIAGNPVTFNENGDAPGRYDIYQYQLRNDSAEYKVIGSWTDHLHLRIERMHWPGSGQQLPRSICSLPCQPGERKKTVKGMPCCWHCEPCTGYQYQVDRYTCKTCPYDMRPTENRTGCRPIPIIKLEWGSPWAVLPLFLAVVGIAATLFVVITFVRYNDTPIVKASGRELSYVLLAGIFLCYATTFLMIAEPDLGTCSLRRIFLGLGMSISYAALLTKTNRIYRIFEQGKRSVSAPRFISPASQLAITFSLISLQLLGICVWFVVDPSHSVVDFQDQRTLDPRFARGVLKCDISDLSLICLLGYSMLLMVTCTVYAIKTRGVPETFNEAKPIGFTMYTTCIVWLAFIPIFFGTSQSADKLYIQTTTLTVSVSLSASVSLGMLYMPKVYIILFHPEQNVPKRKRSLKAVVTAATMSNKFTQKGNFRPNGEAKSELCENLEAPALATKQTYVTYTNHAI

For orientation: EC50 means the concentration giving half of the maximal effect. Higher therefore signals weaker potency. Take `Cc1cccc(S(=O)(=O)Nc2c(F)cc(C#Cc3ccccc3)cc2F)c1` [Example 36, N-[2,6-difluoro-4-(2-phenylethynyl)phenyl]-3-methyl-benzenesulfonamide]: the EC50 was 5020 nM.
As for `Cc1c(F)cccc1S(=O)(=O)Nc1c(F)cc(C#Cc2ccccc2)cc1F` [Example 37, N-[2,6-difluoro-4-(2-phenylethynyl)phenyl]-3-fluoro-2-methyl-benzenesulfonamide], the concentration for a half-maximal effect (EC50) was found to be 1050 nM.
Take `Cc1cc(F)c(C)c(S(=O)(=O)Nc2c(F)cc(C#Cc3cncc(F)c3)cc2F)c1` [Example 38, N-[2,6-difluoro-4-[2-(5-fluoro-3-pyridyl)ethynyl]phenyl]-3-fluoro-2,5-dimethyl-benzenesulfonamide; 2,2,2-trifluoroacetic acid salt]: the concentration giving a half-maximal response (EC50) was 434 nM.
The compound `Cn1nccc1S(=O)(=O)Nc1c(F)cc(C#Cc2cncc(F)c2)cc1F` [Example 39, N-[2,6-difluoro-4-[2-(5-fluoro-3-pyridyl)ethynyl]phenyl]-2-methyl-pyrazole-3-sulfonamide; 2,2,2-trifluoroacetic acid salt] came in with an EC50 of 10500 nM.
Turning to `Cc1cc(F)c(C)c(S(=O)(=O)Nc2c(F)cc(C#Cc3ccccc3)cc2F)c1` [Example 40, N-[2,6-difluoro-4-(2-phenylethynyl)phenyl]-3-fluoro-2,5-dimethyl-benzenesulfonamide], a half-maximal response (EC50) required 808 nM.
Compound `Cc1nn(C)cc1S(=O)(=O)Nc1c(F)cc(C#Cc2ccccc2)cc1F` [Example 41, N-[2,6-difluoro-4-(2-phenylethynyl)phenyl]-1,3-dimethyl-pyrazole-4-sulfonamide; 2,2,2-trifluoroacetic acid salt] returned an EC50 of 9350 nM. This EC50 lies about 12-fold higher than the previous one.
To `COc1cccc(C#Cc2cc(F)c(NS(=O)(=O)c3cccc(Cl)c3C)c(F)c2)c1` [Example 42, 3-chloro-N-[2,6-difluoro-4-[2-(3-methoxyphenyl)ethynyl]phenyl]-2-methyl-benzenesulfonamide] belongs 1320 nM; to `Cc1c(Cl)cccc1S(=O)(=O)Nc1c(F)cc(C#Cc2cccc(F)c2)cc1F` [Example 43, 3-chloro-N-[2,6-difluoro-4-[2-(3-fluorophenyl)ethynyl]phenyl]-2-methyl-benzenesulfonamide], 1270 nM; to `Cc1cc(F)c(C)c(S(=O)(=O)Nc2c(F)cc(C#Cc3cccc(F)c3)cc2F)c1` [Example 45, N-[2,6-difluoro-4-[2-(3-fluorophenyl)ethynyl]phenyl]-3-fluoro-2,5-dimethyl-benzenesulfonamide], 1320 nM.
`COc1c(F)cccc1S(=O)(=O)Nc1c(F)cc(C#Cc2ccccc2)cc1F` [Example 46, N-[2,6-difluoro-4-(2-phenylethynyl)phenyl]-3-fluoro-2-methoxy-benzenesulfonamide] returned an EC50 of 2110 nM.
For `COc1cccc(C#Cc2cc(F)c(NS(=O)(=O)c3cc(C)cc(F)c3C)c(F)c2)c1` [Example 47, N-[2,6-difluoro-4-[2-(3-methoxyphenyl)ethynyl]phenyl]-3-fluoro-2,5-dimethyl-benzenesulfonamide] the value was 1050 nM; for `Cc1cc(F)c(C)c(S(=O)(=O)Nc2c(F)cc(C#Cc3cccc(Cl)c3)cc2F)c1` [Example 48, N-[4-[2-(3-chlorophenyl)ethynyl]-2,6-difluoro-phenyl]-3-fluoro-2,5-dimethyl-benzenesulfonamide], 1250 nM; for `Cc1cc(F)c(C)c(S(=O)(=O)Nc2c(F)cc(C#Cc3cc(F)cc(F)c3)cc2F)c1` [Example 49, N-[4-[2-(3,5-difluorophenyl)ethynyl]-2,6-difluoro-phenyl]-3-fluoro-2,5-dimethyl-benzenesulfonamide], 902 nM.
For `Cc1cc(F)c(C)c(S(=O)(=O)Nc2c(F)cc(C#Cc3cccnc3)cc2F)c1` [Example 50, N-[2,6-difluoro-4-[2-(3-pyridyl)ethynyl]phenyl]-3-fluoro-2,5-dimethyl-benzenesulfonamide] the value was 274 nM; for `Cc1cccc(C#Cc2cc(F)c(NS(=O)(=O)c3cc(C)cc(F)c3C)c(F)c2)c1` [Example 51, N-[2,6-difluoro-4-[2-(m-tolyl)ethynyl]phenyl]-3-fluoro-2,5-dimethyl-benzenesulfonamide], 1410 nM.
To `Cc1c(Cl)cccc1S(=O)(=O)Nc1c(F)cc(C#Cc2cncc(F)c2)cc1F` [Example 52, 3-chloro-N-[2,6-difluoro-4-[2-(5-fluoro-3-pyridyl)ethynyl]phenyl]-2-methyl-benzenesulfonamide] belongs 761 nM.
For the compound `Cc1c(Cl)cc(F)cc1S(=O)(=O)Nc1c(F)cc(C#Cc2cncc(F)c2)cc1F` [Example 53, 3-chloro-N-[2,6-difluoro-4-[2-(5-fluoro-3-pyridyl)ethynyl]phenyl]-5-fluoro-2-methyl-benzenesulfonamide], the EC50 worked out at 523 nM. This EC50 and that of the compound before are within 1.5-fold of each other.
In turn, `Cc1cc(Cl)c(C)c(S(=O)(=O)Nc2c(F)cc(C#Cc3cncc(F)c3)cc2F)c1` [Example 54, 3-chloro-N-(2,6-difluoro-4-((5-fluoropyridin-3-yl)ethynyl)phenyl)-2,5-dimethylbenzenesulfonamide 2,2,2-trifluoroacetate] displayed an EC50 of 918 nM.
For `Cc1c(Cl)cccc1S(=O)(=O)Nc1c(F)cc(C#Cc2cncc(Cl)c2)cc1F` [Example 55, 3-chloro-N-(4-((5-chloropyridin-3-yl)ethynyl)-2,6-difluorophenyl)-2-methylbenzenesulfonamide] the value was 1920 nM; for `Cc1cncc(C#Cc2cc(F)c(NS(=O)(=O)c3cccc(Cl)c3C)c(F)c2)c1` [Example 56, 3-chloro-N-[2,6-difluoro-4-[2-(5-methyl-3-pyridyl)ethynyl]phenyl]-2-methyl-benzenesulfonamide; 2,2,2-trifluoroacetic acid], 1470 nM.
In turn, `Cc1c(F)cccc1S(=O)(=O)Nc1c(F)cc(C#Cc2cncc(F)c2)cc1F` [Example 57, N-[2,6-difluoro-4-[2-(5-fluoro-3-pyridyl)ethynyl]phenyl]-3-fluoro-2-methyl-benzenesulfonamide; 2,2,2-trifluoroacetic acid] showed an EC50 of 575 nM.
To `CC(C)(C)c1cnn(-c2cc(F)c(NS(=O)(=O)c3ccccc3Cl)c(F)c2)c1` [Example 58, N-[4-(4-tert-butylpyrazol-1-yl)-2,6-difluoro-phenyl]-2-chloro-benzenesulfonamide] belongs 13000 nM; to `CC(C)(C)c1cnn(-c2cc(F)c(NS(=O)(=O)c3cc(Cl)cc(Cl)c3)c(F)c2)c1` [Example 60, N-[4-(4-tert-butylpyrazol-1-yl)-2,6-difluoro-phenyl]-3,5-dichloro-benzenesulfonamide], 6720 nM.
For the compound `Cc1cc(F)c(C)c(S(=O)(=O)Nc2c(F)cc(C#Cc3cccc(O)c3)cc2F)c1` [Example 61, N-[2,6-difluoro-4-[2-(3-hydroxyphenyl)ethynyl]phenyl]-3-fluoro-2,5-dimethyl-benzenesulfonamide], the EC50 came to 992 nM.
